# Test results from US10702506B2, “Small molecule inhibitors of pendrin ion exchange and pharmaceutical compositions” (THE REGENTS OF THE UNIVERSITY OF CALIFORNIA, priority 2016, dated 2020).
# Legend:
# ENaC = target: T1, ENaC (Homo sapiens, UniProt P37088+P51168+P51170); assay: Short-circuit current (Isc) analysis in IL-13-treated HBE cells, amiloride response; assay type: cell-based; conditions: 25 μM, 30 min pre-treatment
# T1 construct: endogenous in cells; host or cells: IL-13-treated primary human bronchial epithelial (HBE) cell cultures
# T1 sequence (P37088 1-669): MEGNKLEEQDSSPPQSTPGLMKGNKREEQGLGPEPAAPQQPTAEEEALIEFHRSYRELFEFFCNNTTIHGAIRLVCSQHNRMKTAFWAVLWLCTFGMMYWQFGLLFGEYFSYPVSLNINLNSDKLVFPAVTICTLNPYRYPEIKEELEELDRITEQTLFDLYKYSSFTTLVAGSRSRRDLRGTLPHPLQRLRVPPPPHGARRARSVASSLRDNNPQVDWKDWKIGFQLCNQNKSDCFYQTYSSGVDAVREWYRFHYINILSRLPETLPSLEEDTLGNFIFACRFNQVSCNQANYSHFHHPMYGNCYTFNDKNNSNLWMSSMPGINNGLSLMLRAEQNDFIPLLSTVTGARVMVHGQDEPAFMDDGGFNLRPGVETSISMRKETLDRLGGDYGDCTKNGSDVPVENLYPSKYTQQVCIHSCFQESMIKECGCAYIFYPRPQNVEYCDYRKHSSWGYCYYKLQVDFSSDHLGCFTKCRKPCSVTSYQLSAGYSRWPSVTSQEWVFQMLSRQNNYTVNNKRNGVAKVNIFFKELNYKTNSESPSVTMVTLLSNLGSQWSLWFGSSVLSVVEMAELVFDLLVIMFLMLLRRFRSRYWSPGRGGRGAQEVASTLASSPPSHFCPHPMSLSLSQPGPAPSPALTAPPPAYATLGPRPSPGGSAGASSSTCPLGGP
# T1 sequence (P51168 1-640): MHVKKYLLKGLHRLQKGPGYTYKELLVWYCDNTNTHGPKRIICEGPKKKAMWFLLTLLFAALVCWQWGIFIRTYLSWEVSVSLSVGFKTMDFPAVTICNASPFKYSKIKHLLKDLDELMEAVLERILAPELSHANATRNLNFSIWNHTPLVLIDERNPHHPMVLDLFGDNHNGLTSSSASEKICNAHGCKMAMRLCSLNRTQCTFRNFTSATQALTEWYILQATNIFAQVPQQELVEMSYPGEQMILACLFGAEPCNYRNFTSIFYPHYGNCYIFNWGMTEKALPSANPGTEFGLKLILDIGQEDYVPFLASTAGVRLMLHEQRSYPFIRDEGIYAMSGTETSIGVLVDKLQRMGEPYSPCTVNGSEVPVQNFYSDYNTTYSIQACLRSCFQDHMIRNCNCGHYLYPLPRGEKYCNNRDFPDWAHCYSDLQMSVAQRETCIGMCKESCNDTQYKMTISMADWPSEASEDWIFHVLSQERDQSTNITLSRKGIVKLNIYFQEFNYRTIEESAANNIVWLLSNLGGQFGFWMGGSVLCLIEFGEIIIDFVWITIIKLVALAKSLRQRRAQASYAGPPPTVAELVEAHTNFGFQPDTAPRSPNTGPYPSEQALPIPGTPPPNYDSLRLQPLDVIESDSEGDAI
# T1 sequence (P51170 1-649): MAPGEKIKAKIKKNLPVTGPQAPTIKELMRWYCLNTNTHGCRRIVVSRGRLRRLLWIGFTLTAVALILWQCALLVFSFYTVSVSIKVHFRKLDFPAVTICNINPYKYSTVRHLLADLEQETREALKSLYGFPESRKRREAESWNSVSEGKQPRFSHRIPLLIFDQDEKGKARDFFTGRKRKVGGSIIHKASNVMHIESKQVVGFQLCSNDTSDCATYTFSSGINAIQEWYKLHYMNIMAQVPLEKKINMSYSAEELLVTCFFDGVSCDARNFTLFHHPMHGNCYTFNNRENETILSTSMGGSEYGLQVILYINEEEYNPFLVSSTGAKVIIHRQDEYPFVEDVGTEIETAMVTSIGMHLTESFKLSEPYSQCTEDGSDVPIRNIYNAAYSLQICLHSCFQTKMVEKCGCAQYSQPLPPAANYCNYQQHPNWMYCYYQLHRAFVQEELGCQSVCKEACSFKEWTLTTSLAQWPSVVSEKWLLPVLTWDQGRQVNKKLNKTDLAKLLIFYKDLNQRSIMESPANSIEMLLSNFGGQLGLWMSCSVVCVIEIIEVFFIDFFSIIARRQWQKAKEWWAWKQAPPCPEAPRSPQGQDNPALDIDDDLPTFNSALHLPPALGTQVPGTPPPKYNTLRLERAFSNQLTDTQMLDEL
# Experimental: Further experiments were done with PDSinh-A01 because of its greater inhibition potency for Cl^−/HCO3^− exchange than PDSinh-C01. To investigate PDSinh-A01 specificity, the major ion transport pathways in HBE cells were studied by short-circuit current (Isc) analysis. Cells were treated with IL-13 to increase Ca^2+-activated Cl^− conductance (CaCC) activity. For Isc measurements, cells were sequentially treated with amiloride to inhibit the epithelial sodium channel (ENaC), forskolin to activate the cystic fibrosis transmembrane conductance regulator (CFTR), CFTRinh-172 to inhibit CFTR, and ATP to activate CaCC. In the absence of PDSinh-A01, ion channel modulators produced the anticipated changes in Isc (FIG. 4A).
# IL-13-treated HBE cells were cultured on Snapwell clear permeable supports (12 mm diameter, 0.4 μm polyester membrane, Costar, Corning, Corning, N.Y.). Short-circuit current was measured using symmetrical HCO3^−-buffered solutions (in mM: 120 NaCl, 5 KCl, 1 MgCl2, 1 CaCl2, 5 Hepes, 25 NaHCO3; pH 7.4) as described, with ion transport modulators added to both apical and basolateral bathing solutions. Cells were equilibrated with 95% O2/5% CO2 and maintained at 37° C. during data acquisition. Statistical analysis was by Student's t-test.
# [1] = tested on: HBE and CFBE cell cultures; assay: ASL pH by BCECF-dextran ratio imaging in HBE and CFBE cultures; assay type: cell-based, human; conditions: 25 μM, 4 hours
# Experimental: To investigate the possible involvement of pendrin in ASL pH regulation, fluorescence ratio imaging was done of the ASL in HBE and CFBE cultures after staining with BCECF-dextran. In the absence of IL-13-treatment, ASL pH was ˜0.3 pH units more acidic in CFBE than HBE cultures (FIG. 5C; pH ˜7.4 vs. ˜7.1), in agreement with prior studies showing relative ASL acidity in CF.
# ASL pH was measured using the pH-sensitive fluorophore BCECF conjugated to 10 kDa dextran (Invitrogen, Carlsbad, Calif.) as described, which was added 4-6 h prior to measurement (20 μl of 0.5 mg/ml in PBS). Cell inserts were incubated in HCO3^−-containing buffer (5% CO2 environment) and the ASL was imaged using a SMZ stereoscopic microscope (Nikon, Melville, N.Y.) equipped with a C9100 EM-CCD, Exfo XCite light source and BCECF filters (440/10X, 490/20X, 535/25M, Chroma, Bellows Falls, Vt.). In some experiments ASL pH was measured after PDSinh-A01 treatment, as described for ASL depth measurements. To relate BCECF fluorescence to pH, a calibration curve over the quasi-linear range of BCECF sensitivity was generated.
compound,measurement,setting,value
Cn1nc(COc2cccc(F)c2)c2c1CCN(C(=O)Nc1ccc(Cl)cc1)C2 [PDSinh-A01],effect on ENaC activity (Isc response),ENaC,did not affect the activity
same,"effect on ASL pH, IL-13-treated cultures",[1]; IL-13-treated,did not alter ASL pH
same,"effect on ASL pH, basal conditions",[1]; no IL-13,did not alter ASL pH
